Source: ChEMBL document CHEMBL1133277, “Effect of C2/C3-endo unsaturation on the cytotoxicity and DNA-binding reactivity of pyrrolo[2,1-c][1,4]benzodiazepines” (2000)

Key:
[1] = test system: A2780; experiment: In vitro cytotoxicity of compound was determined against A2780 cell lines (cisplatin resistant) at 37 degree C after 96 hr; assay type: functional, Homo sapiens
[2] = test system: CH1; experiment: In vitro cytotoxicity of compound was determined against CH1 cell lines at 37 degree C after 96 hr; assay type: functional, Homo sapiens
[3] = test system: Nucleic Acid; experiment: Change in temperature (thermal denaturation) was determined from calf thymus DNA at 37 degree Celsius for 0 hours; assay type: functional; conditions: Bos taurus
[4] = test system: CH1; experiment: In vitro cytotoxicity of compound was determined against CH1 (cisplatin resistant) cell lines at 37 degree C after 96 hr; assay type: functional, Homo sapiens
[5] = test system: Nucleic Acid; experiment: Change in temperature (thermal denaturation) was determined from calf thymus DNA at 37 degree Celsius for 36 hours; assay type: functional; conditions: Bos taurus
[6] = Resistance factor of compound was determined from cisplatin resistant A2780 cell lines to that of A2780 cell lines; assay type: functional
[7] = test system: SK-OV-3; experiment: In vitro cytotoxicity of compound was determined against SKOV-3 cell lines at 37 degree C after 96 hr; assay type: functional, Homo sapiens
[8] = test system: Nucleic Acid; experiment: Change in temperature (thermal denaturation) was determined from calf thymus DNA at 37 degree Celsius for 4 hours; assay type: functional; conditions: Bos taurus
[9] = Resistance factor of compound was determined from cisplatin resistant CH1 cell lines to that of CH1 cell lines; assay type: functional
[10] = test system: A2780; experiment: In vitro cytotoxicity of compound was determined against A2780 cell lines at 37 degree C after 96 hr; assay type: functional, Homo sapiens
[11] = test system: Nucleic Acid; experiment: Change in temperature (thermal denaturation) was determined from calf thymus DNA at 37 degree Celsius for 18 hours; assay type: functional; conditions: Bos taurus

COC(=O)CC1=CN2C(=O)c3cc(OC)c(OCc4ccccc4)cc3N=C[C@@H]2C1
Cytotoxicity [1]: 0.12 µM | Cytotoxicity [2]: 0.016 µM | ΔTm [3]: 3.08 °C | Cytotoxicity [4]: 0.04 µM | ΔTm [5]: 4.97 °C | Resistance factor [6]: 8.3 | Cytotoxicity [7]: 0.12 µM | ΔTm [8]: 3.96 °C | Resistance factor [9]: 2.5 | Cytotoxicity [10]: 0.0145 µM

Cc1ccc2c(c1O)N=C[C@@H]1CC(/C=C/C(N)=O)=CN1C2=O
Cytotoxicity [1]: 0.16 µM | ΔTm [11]: 13 °C | Cytotoxicity [2]: 0.062 µM | ΔTm [3]: 9.4 °C | Cytotoxicity [4]: 0.05 µM | Resistance factor [6]: 1.03 | Cytotoxicity [7]: 0.16 µM | ΔTm [8]: 11.2 °C | Resistance factor [9]: 0.81 | Cytotoxicity [10]: 0.155 µM

COc1cc2c(cc1OCc1ccccc1)N=C[C@@H]1CCCN1C2=O
Cytotoxicity [1]: 0.48 µM | ΔTm [11]: 0.4 °C | Cytotoxicity [2]: 0.145 µM | ΔTm [3]: 0.2 °C | Cytotoxicity [4]: 0.145 µM | Resistance factor [6]: 2.8 | Cytotoxicity [7]: 0.46 µM | ΔTm [8]: 0.4 °C | Resistance factor [9]: 1 | Cytotoxicity [10]: 0.17 µM

COc1cc2c(cc1OCc1ccccc1)N=C[C@@H]1CC(CC#N)=CN1C2=O
Cytotoxicity [1]: 0.43 µM | ΔTm [11]: 4.31 °C | Cytotoxicity [2]: 0.105 µM | ΔTm [3]: 1.84 °C | Cytotoxicity [4]: 0.27 µM | Resistance factor [6]: 2.8 | Cytotoxicity [7]: 0.52 µM | ΔTm [8]: 2.31 °C | Resistance factor [9]: 2.6 | Cytotoxicity [10]: 0.155 µM

COc1cc2c(cc1OCc1ccccc1)N=C[C@@H]1CC(CCOC(C)=O)=CN1C2=O
Cytotoxicity [1]: 0.27 µM | ΔTm [11]: 2.53 °C | Cytotoxicity [2]: 0.105 µM | ΔTm [3]: 1.57 °C | Cytotoxicity [4]: 0.16 µM | Resistance factor [6]: 2.7 | Cytotoxicity [7]: 0.46 µM | ΔTm [8]: 2.11 °C | Resistance factor [9]: 1.5 | Cytotoxicity [10]: 0.1 µM

COC(=O)CC1=CN2C(=O)c3cc(OC)c(OC)cc3N=C[C@@H]2C1
Cytotoxicity [1]: 0.46 µM | Cytotoxicity [2]: 0.115 µM | ΔTm [3]: 3.41 °C | Cytotoxicity [4]: 0.15 µM | ΔTm [5]: 6.65 °C | Resistance factor [6]: 1.3 | Cytotoxicity [7]: 0.45 µM | ΔTm [8]: 4.63 °C | Resistance factor [9]: 1.3 | Cytotoxicity [10]: 0.36 µM

COc1cc2c(cc1OCc1ccccc1)N=C[C@@H]1CC(CCO)=CN1C2=O
Cytotoxicity [1]: 0.105 µM | ΔTm [11]: 5.6 °C | Cytotoxicity [2]: 0.09 µM | ΔTm [3]: 3.98 °C | Cytotoxicity [4]: 0.037 µM | Resistance factor [6]: 1.5 | Cytotoxicity [7]: 0.105 µM | ΔTm [8]: 4.61 °C | Resistance factor [9]: 0.4 | Cytotoxicity [10]: 0.07 µM
